In patent publication US20200017496A1 (priority 2017, published 2020):

What was measured:
Test in all cases: MIC of compounds alone and combined with antibacterials, broth microdilution (CLSI)
Format in all cases: cell-based
[1] = system: Citrobacter freundii (CFR) isolates
In short: (§1)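 Log-phase isolates at final 5·10^5 CFU/mL in cation-adjusted Mueller-Hinton broth, incubated 16-20 h at 35° C in ambient air. MIC read visually as lowest concentration preventing growth, for compound alone and for antibacterial at each compound concentration.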

[2] = system: Enterobacter cloacae (ECL) isolates
In short: as §1

[3] = system: Klebsiella oxytoca (KOX) isolates; settings: AF1 @ 4 μg/mL
In short: as §1

[4] = system: Klebsiella pneumoniae (KPN) isolates; settings: AF1 @ 4 μg/mL
In short: as §1

[5] = system: Salmonella typhimurium (STY) isolates; settings: STY S3371; AF1 @ 4 μg/mL
In short: as §1

COCC1=C(C(=O)O)N2C(=O)[C@@H](NC(=O)/C(=N\OC)c3csc(N)n3)[C@H]2SC1 [POD, Cefpodoxime]
MIC ATB in combination ([1]; CFR UFR10, AF1 @ 4 μg/mL): <=0.25 μg/mL | MIC ATB in combination ([1]; CFR UFR11, AF1 @ 4 μg/mL): 16 µg/mL | MIC ATB in combination ([1]; CFR UFR83, AF1 @ 4 μg/mL): >128 µg/mL | MIC ATB in combination ([1]; CFR UFR146, AF1 @ 4 μg/mL): 1 µg/mL | MIC ATB in combination ([1]; CFR UFR248, AF1 @ 4 μg/mL): 1 µg/mL | MIC ATB in combination ([1]; CFR UFR249, AF1 @ 4 μg/mL): <=0.25 μg/mL | MIC ATB in combination ([1]; CFR UFR250, AF1 @ 4 μg/mL): 0.5 µg/mL | MIC ATB in combination ([1]; strain CFR UFR253, antibacterial combined with AF1 @ 4 μg/mL): <=0.25 μg/mL | MIC ATB in combination ([1]; strain CFR UFR254, antibacterial combined with AF1 @ 4 μg/mL): <=0.25 μg/mL | MIC ATB in combination ([2]; ECL 2185D, AF1 @ 4 μg/mL): >128 µg/mL | MIC ATB in combination ([2]; ECL 190310, AF1 @ 4 μg/mL): 64 µg/mL | MIC ATB in combination ([2]; ECL 190408, AF1 @ 4 μg/mL): <=0.25 μg/mL | MIC ATB in combination ([2]; ECL 200138, AF1 @ 4 μg/mL): 32 µg/mL | MIC ATB in combination ([2]; ECL 200322, AF1 @ 4 μg/mL): 1 µg/mL | MIC ATB in combination ([2]; ECL 260033, AF1 @ 4 μg/mL): 128 µg/mL | MIC ATB in combination ([2]; ECL 260253, AF1 @ 4 μg/mL): 8 µg/mL | MIC ATB in combination ([2]; ECL 260323, AF1 @ 4 μg/mL): 32 µg/mL | MIC ATB in combination ([2]; ECL 260508, AF1 @ 4 μg/mL): 1 µg/mL | MIC ATB in combination ([2]; ECL NEM146383, AF1 @ 4 μg/mL): 16 µg/mL | MIC ATB in combination ([2]; ECL P99, AF1 @ 4 μg/mL): 16 µg/mL | MIC ATB in combination ([2]; ECL UFR12, AF1 @ 4 μg/mL): 1 µg/mL | MIC ATB in combination ([2]; ECL UFR13, AF1 @ 4 μg/mL): 8 µg/mL | MIC ATB in combination ([2]; ECL UFR14, AF1 @ 4 μg/mL): 8 µg/mL | MIC ATB in combination ([2]; ECL UFR60, AF1 @ 4 μg/mL): 1 µg/mL | MIC ATB in combination ([2]; ECL UFR70, AF1 @ 4 μg/mL): 8 µg/mL | MIC ATB in combination ([2]; ECL UFR84, AF1 @ 4 μg/mL): 32 µg/mL | MIC ATB in combination ([2]; ECL UFR85, AF1 @ 4 μg/mL): 4 µg/mL | MIC ATB in combination ([2]; ECL UFR194, AF1 @ 4 μg/mL): 1 µg/mL | MIC ATB in combination ([2]; ECL UFR200, AF1 @ 4 μg/mL): 1 µg/mL | MIC ATB in combination ([2]; strain ECL UFR195, antibacterial combined with AF1 @ 4 μg/mL): 1 µg/mL | MIC ATB in combination ([2]; strain ECL UFR196, antibacterial combined with AF1 @ 4 μg/mL): 2 µg/mL | MIC ATB in combination ([2]; strain ECL UFR197, antibacterial combined with AF1 @ 4 μg/mL): 8 µg/mL | MIC ATB in combination ([2]; strain ECL UFR198, antibacterial combined with AF1 @ 4 μg/mL): 8 µg/mL | MIC ATB in combination ([3]; KOX UFR21): 1 µg/mL | MIC ATB in combination ([3]; KOX UFR173): 0.5 µg/mL | MIC ATB in combination ([3]; KOX UFR223): <=0.25 μg/mL | MIC ATB in combination ([3]; KOX UFR224): <=0.25 μg/mL | MIC ATB in combination ([4]; KPN 6299): <=0.25 μg/mL | MIC ATB in combination ([4]; KPN 110376): <=0.25 μg/mL | MIC ATB in combination ([4]; KPN 131119): <=0.25 μg/mL | MIC ATB in combination ([4]; KPN 140513): 4 µg/mL | MIC ATB in combination ([4]; KPN 160143): <=0.25 μg/mL | MIC ATB in combination ([4]; KPN 190128): 0.5 µg/mL | MIC ATB in combination ([4]; KPN 190270): 0.5 µg/mL | MIC ATB in combination ([4]; KPN 190425): <=0.25 μg/mL | MIC ATB in combination ([4]; KPN 190551): <=0.25 μg/mL | MIC ATB in combination ([4]; KPN 200047): <=0.25 μg/mL | MIC ATB in combination ([4]; KPN 200327): <=0.25 μg/mL | MIC ATB in combination ([4]; KPN 260251): <=0.25 μg/mL | MIC ATB in combination ([4]; KPN 260252): 4 µg/mL | MIC ATB in combination ([4]; KPN 260376): <=0.25 μg/mL | MIC ATB in combination ([4]; KPN 270077): 0.5 µg/mL | MIC ATB in combination ([4]; KPN 700603): 0.5 µg/mL | MIC ATB in combination ([4]; KPN ARA): <=0.25 μg/mL | MIC ATB in combination ([4]; KPN BAA-1898): 0.5 µg/mL | MIC ATB in combination ([4]; KPN LIB): <=0.25 μg/mL | MIC ATB in combination ([4]; KPN UFR22_O): <=0.25 μg/mL | MIC ATB in combination ([4]; KPN UFR23): <=0.25 μg/mL | MIC ATB in combination ([4]; KPN UFR24): 1 µg/mL | MIC ATB in combination ([4]; KPN UFR25): <=0.25 μg/mL | MIC ATB in combination ([4]; KPN UFR27): 4 µg/mL | MIC ATB in combination ([4]; KPN UFR28): <=0.25 μg/mL | MIC ATB in combination ([4]; KPN UFR65): 0.5 µg/mL | MIC ATB in combination ([4]; KPN UFR66): 2 µg/mL | MIC ATB in combination ([4]; KPN UFR67): 4 µg/mL | MIC ATB in combination ([4]; KPN UFR68): 1 µg/mL | MIC ATB in combination ([4]; KPN UFR76): >128 µg/mL | MIC ATB in combination ([4]; KPN UFR77): 4 µg/mL | MIC ATB in combination ([4]; KPN UFR78): 128 µg/mL | MIC ATB in combination ([4]; KPN UFR79): 4 µg/mL | MIC ATB in combination ([4]; KPN UFR80): 0.5 µg/mL | MIC ATB in combination ([4]; KPN UFR81): 4 µg/mL | MIC ATB in combination ([4]; KPN UFR215): 0.5 µg/mL | MIC ATB in combination ([4]; KPN UFR216): <=0.25 μg/mL | MIC ATB in combination ([4]; KPN UFR217): <=0.25 μg/mL | MIC ATB in combination ([4]; KPN UFR219): <=0.25 μg/mL | MIC ATB in combination ([4]; KPN UFR220): 4 µg/mL | MIC ATB in combination ([4]; KPN UFR221): 1 µg/mL | MIC ATB in combination ([4]; KPN UFR222): 8 µg/mL | MIC ATB in combination ([4]; KPN UFR227O): 4 µg/mL | MIC ATB in combination [5]: <=0.25 μg/mL
